Assays:
[1] = system: DA2 receptor; experiment: Goldberg in situ femoral arterial preparation (DA2 assay), intra-arterial injection; assay type: in vivo, dog; settings: for ED50: blood flow increase, i.a. bolus into femoral artery, anesthetized dog; for Relative Efficacy to DA2 Standard: optimal response of test compound divided by optimal response of DPDA; for Relative Potency to DA2 Standard: standard (DPDA) ED50 divided by test compound ED50
Method: (§1) The compounds were subsequently tested following intra-arterial administration in an in situ renal and femoral arterial preparation in the dog, as developed by L.I. Goldberg, to test for DA1 and DA2 dopamine activity, respectively. Details of the methodology are provided in the European J. Pharmacol. 89 :137, 1983, as well as in Hypertension 6 :1-25, 1984.
as §1, with “compounds of this invention” for “compounds”, “were” for “were subsequently”, “Pharmacol. ,” for “Pharmacol.”, “Hypertension ,” for “Hypertension”, “1984. J. L. McNay, L. I. Goldberg JPET 151 :23-31, 1966.” for “1984.”
(§2) The compounds were injected directly into the renal or femoral artery for analysis of DA, or DA2 activity, respectively. […] The compounds were tested for relative activity in comparison to the standard DA, agonist, dopamine or the standard DA2 agonist, DPDA. Specific DA, or DA2 activity of the tested compound was verified by Sch 23390 or domperidone blockade.
Adult mongrel dogs of either sex (12-20 kg) were anesthetized with pentobarbital sodium (33 mg/kg, i.v.). The animals were intubated and ventilated with room air using a Harvard respirator.
as §1, with “compounds of this invention” for “compounds”, “were” for “were subsequently”, “Pharmacol. ,” for “Pharmacol.”, “Hypertension ,” for “Hypertension”, “1984. J. L. McNay, L. I. Goldberg JPET 151 :23-31, 1966” for “1984.”
as §2, with “of DA1” for “of DA,”, “standard DA1” for “standard DA,”
The thoracic aorta was catheterized with a Millar micro-tip (size 5F) transducer via the right carotid artery for blood pressure monitoring. The right external jugular vein was cannulated with PE-160 tubing for supplemental pentobarbital administration. The left femoral artery was isolated and an electromagnetic flowprobe of the appropriate size (8-11 mm circ.) was placed around the artery and connected to a Caroline Medical electromagnetic flowmeter. Surface ECG leads were placed subcutaneously on the chest and limbs to monitor heart rate. A 25 gauge 3/4" needle bent 90` , 4 mm from the tip, was placed in the femoral artery proximal to the probe and connected to an infusion pump delivering saline at a constant rate of 1 ml/min. Following a saline and bradykinin challenge (0.02 to 0.04 nmoles, in 0.2 ml saline, i.a.), a dose response curve for DPDA was generated by injecting 4-fold increasing doses i.a. ranging from 3 to 48 nmoles in 0.2 ml saline. Test compounds were injected similarly in 4-fold increasing doses up to 3000 nmoles. Compounds were then repeated at their optimal dose following domperidone pretreatment (10-40 Ilg/kg, iv).
Efficacy ratios were determined by division of the optimal response of the test compound by the optimal response of the standard agent. The optimal dose of compound was defined as that which produced a maximum increase in blood flow before causing a change in systemic blood pressure. ED50 values were derived by regression analysis from individually generated dose response curves. Potency ratios were the quotients calculated from the division of the standard agent EDso by the ED50 of the test compound. […] If the inhibition of the test compound was similar to that of dopamine or DPDA, the compound was considered to be a DA, or DA2 agonist, respectively.

[2] = system: saline-loaded spontaneously hypertensive rat (SHR); experiment: Spontaneous Hypertensive Rat - diuretic activity, saline-loaded, oral; assay type: in vivo; settings: for Urine K^+ (mEq/sample) / Urine Na^+ (mEq/sample) / Urine Volume: n = 7, mean ± S.D.
Method: Additionally, these compounds were examined for diuretic activity for 6 hours following oral compound administration in the saline-loaded spontaneously hypertensive rat (SHR). Methods for this assay have been previously described (Rosenkranz, et al, Proc. West. Pharmacol. Soc. 28 :87, 1985). The diuretic and natriuretic effects elicited by these compounds were characterized by an immediate onset of action.
The compounds of this invention were examined for diuretic activity for 6 hours following oral compound administration in the saline-loaded spontaneously hypertensive rat (SHR). Methods for this assay have been previously described (Rosenkranz, et al, Proc. West. Pharmacol. Soc. 28 :87, 1985). The diuretic and natriuretic effects elicited by these compounds were characterized by an immediate onset of action.
Male spontaneously hypertensive SHR/NCrIBR rats weighing 320-430 gms were divided into four groups of seven animals. All animals were food- and water-deprived overnight. The following morning, each group of rats was hydrated with deionized water (20 ml/kg, po) forty-five minutes prior to the administration of vehicle or the test compounds.
Following vehicle or drug, the rats were placed in individual metabolic units. Fifteen minutes post-dose the animals were saline-loaded (30 ml/kg, po). Urine was collected at 1, 3 and 6 hour intervals post-saline- load. Urine volumes were measured and sodium and potassium levels were determined by flame photometry.
A two-way analysis of variance with time, treatment and their interaction was run as a repeated measures analysis. A secondary model of one-way analysis of variance (by time) was run using specified contrasts. The p-values for the contrasts were adjusted using Fisher's LSD strategy at each time point.

[3] = po 3 mg/kg, cumulative time 1 hr
[4] = po 3 mg/kg, cumulative time 3 hr
[5] = po 3 mg/kg, cumulative time 6 hr
[6] = po 10 mg/kg, cumulative time 1 hr
[7] = po 10 mg/kg, cumulative time 3 hr
[8] = po 10 mg/kg, cumulative time 6 hr
[9] = po 30 mg/kg, cumulative time 1 hr
[10] = po 30 mg/kg, cumulative time 3 hr
[11] = po 30 mg/kg, cumulative time 6 hr

| Compound | ED50 [1] | Relative Efficacy to DA2 Standard [1] | Relative Potency to DA2 Standard [1] | Urine K^+ (mEq/sample) [2, 3] | Urine Na^+ (mEq/sample) [2, 3] | Urine Volume [2, 3] | Urine K^+ (mEq/sample) [2, 4] | Urine Na^+ (mEq/sample) [2, 4] | Urine Volume [2, 4] | Urine K^+ (mEq/sample) [2, 5] | Urine Na^+ (mEq/sample) [2, 5] | Urine Volume [2, 5] | Urine K^+ (mEq/sample) [2, 6] | Urine Na^+ (mEq/sample) [2, 6] | Urine Volume [2, 6] | Urine K^+ (mEq/sample) [2, 7] | Urine Na^+ (mEq/sample) [2, 7] | Urine Volume [2, 7] | Urine K^+ (mEq/sample) [2, 8] | Urine Na^+ (mEq/sample) [2, 8] | also measured |
| --- | --- | --- | --- | --- | --- | --- | --- | --- | --- | --- | --- | --- | --- | --- | --- | --- | --- | --- | --- | --- | --- |
| Br.Br.CCCN(CCCCCCN1CCC[C@@H]1Cc1ccc(O)c(O)c1)CCc1ccc(O)cc1 [Test Compound 1, (R)-2-(3,4-dihydroxybenzyl)-1-[6-(N-(4-hydroxyphenethyl)-N-propylamino)hexyl]pyrrolidine dihydrobromide] | 0.02 nmol | 1.29 | 327.50 | 0.03±0.04 mEq/sample | 0.02±0.02 mEq/sample | 4.6 ± 1.9 mL | 0.11±0.05 mEq/sample | 0.07±0.03 mEq/sample | 7.8 ± 1.4 mL | 0.20±0.07 mEq/sample | 0.25±0.10 mEq/sample | 9.4 ± 1.8 mL | 0.06±0.03 mEq/sample | 0.28±0.13 mEq/sample | 9.9 ± 3.6 mL | 0.16±0.08 mEq/sample | 0.51±0.22 mEq/sample | 11.4 ± 3.9 mL | 0.22±0.11 mEq/sample | 0.51±0.27 mEq/sample | kaliuresis ([2]; 30 mg/kg, po, 1, 3, and 6 hour post-dose time points): significant kaliuresis; Urine Volume [2, 8]: 11.8 ± 3.9 mL; Urine K^+ (mEq/sample) [2, 9]: 0.07±0.02 mEq/sample; Urine Na^+ (mEq/sample) [2, 9]: 0.61±0.16 mEq/sample; Urine Volume [2, 9]: 14.7 ± 2.3 mL; Urine K^+ (mEq/sample) [2, 10]: 0.24±0.05 mEq/sample; Urine Na^+ (mEq/sample) [2, 10]: 1.13±0.25 mEq/sample; Urine Volume [2, 10]: 18.6 ± 2.8 mL; Urine K^+ (mEq/sample) [2, 11]: 0.31±0.06 mEq/sample; Urine Na^+ (mEq/sample) [2, 11]: 1.31±0.27 mEq/sample; Urine Volume [2, 11]: 19.3 ± 2.7 mL |
| Br.Br.CCCN(CCCCCCN1CCC[C@@H]1Cc1ccc(O)c(O)c1)CCc1cccc(O)c1 [Test Compound 2, (R)-2-(3,4-dihydroxybenzyl)-1-[6-(N-(3-hydroxyphenethyl)-N-propylamino)hexyl]pyrrolidine dihydrobromide] | 0.04 nmol | 1.26 | 216.00 | 0.02±0.01 mEq/sample | 0.00±0.00 mEq/sample | 5.2 ± 1.4 mL | 0.09±0.04 mEq/sample | 0.06±0.04 mEq/sample | 7.9 ± 0.7 mL | 0.17±0.05 mEq/sample | 0.19±0.07 mEq/sample | 9.1 ± 0.8 mL | 0.02±0.01 mEq/sample | 0.09±0.05 mEq/sample | 8.9 ± 1.6 mL | 0.10±0.06 mEq/sample | 0.26±0.12 mEq/sample | 11.2 ± 2.0 mL | 0.13±0.09 mEq/sample | 0.31±0.17 mEq/sample | Urine Volume [2, 8]: 11.7 ± 2.4 mL; Urine K^+ (mEq/sample) [2, 9]: 0.03±0.02 mEq/sample; Urine Na^+ (mEq/sample) [2, 9]: 0.16±0.05 mEq/sample; Urine Volume [2, 9]: 13.0 ± 2.2 mL; Urine K^+ (mEq/sample) [2, 10]: 0.13±0.07 mEq/sample; Urine Na^+ (mEq/sample) [2, 10]: 0.40±0.12 mEq/sample; Urine Volume [2, 10]: 15.7 ± 2.1 mL; Urine K^+ (mEq/sample) [2, 11]: 0.17±0.09 mEq/sample; Urine Na^+ (mEq/sample) [2, 11]: 1.45±0.12 mEq/sample; Urine Volume [2, 11]: 15.9 ± 2.1 mL |
